What all share (assay type): functional
Common to all, as to settings: time 18-24 hrs

One test concerns Acinetobacter baumannii. Put plainly: Antibacterial activity against Acinetobacter baumannii ATCC 19606 assessed as reduction in bacterial growth incubated for 18 to 24 hrs by broth microdilution method. A general note: Dilution methods test growth across graded concentrations, often in twofold steps.
The subject of a further test is Klebsiella pneumoniae. Description: Antibacterial activity against Klebsiella pneumoniae ATCC 700603 assessed as reduction in bacterial growth incubated for 18 to 24 hrs by broth microdilution method.
A further test relates to Escherichia coli. Description: Antibacterial activity against Escherichia coli ATCC 25922 assessed as reduction in bacterial growth incubated for 18 to 24 hrs by broth microdilution method.
In another test the test system is Pseudomonas aeruginosa. Description: Antibacterial activity against Pseudomonas aeruginosa ATCC 27853 assessed as reduction in bacterial growth incubated for 18 to 24 hrs by broth microdilution method.
In a further test the test system is Enterococcus faecalis. Description: Antibacterial activity against Enterococcus faecalis ATCC 29212 assessed as reduction in bacterial growth incubated for 18 to 24 hrs by broth microdilution method.
In test [1] the test system is Staphylococcus epidermidis. Put plainly: Antibacterial activity against Staphylococcus epidermidis ATCC 12228 assessed as reduction in bacterial growth incubated for 18 to 24 hrs by broth microdilution method.
A further test relates to Bacillus subtilis. Description: Antibacterial activity against Bacillus subtilis ATCC 23857 assessed as reduction in bacterial growth incubated for 18 to 24 hrs by broth microdilution method.
The subject of another test is Staphylococcus aureus. Description: Antibacterial activity against Staphylococcus aureus ATCC 25923 assessed as reduction in bacterial growth incubated for 18 to 24 hrs by broth microdilution method.

In brackets after ≈: the same amount, converted by molar mass. Peptide text beside a SMILES is read from it. * marks the point of attachment. Decanoyl = CCCCCCCCCC(=O)*; Hexanoyl = CCCCCC(=O)*; Butyryl = CCCC(=O)*

For the compound `CCCC(=O)NCCCC[C@H](NC(=O)CCC)C(=O)N[C@@H](CCCCN)C(=O)N[C@@H](CCCCN)C(=O)N[C@@H](Cc1c[nH]c2ccccc12)C(=O)N[C@@H](Cc1c[nH]c2ccccc12)C(N)=O` (Butyryl-K(Butyryl)KKWW-NH2), the MIC (with Acinetobacter baumannii; in the test on Klebsiella pneumoniae; in the test on Escherichia coli; with Pseudomonas aeruginosa; in the test on Enterococcus faecalis; in test [1]) was 128 µM (≈ 117 µg/mL) throughout. Besides, the MIC with Bacillus subtilis and in the test on Staphylococcus aureus was 128 µM (≈ 117 µg/mL) in each case.

Turning to `CCCC(=O)N[C@@H](CCCCN)C(=O)N[C@@H](CCCCN)C(=O)N[C@@H](Cc1c[nH]c2ccccc12)C(=O)N[C@@H](Cc1c[nH]c2ccccc12)C(N)=O` (Butyryl-KKWW-NH2), the MIC (in the test with Acinetobacter baumannii; with Klebsiella pneumoniae; in the test with Escherichia coli; in the test on Pseudomonas aeruginosa; with Enterococcus faecalis; in test [1]) was 128 µM (≈ 91.6 µg/mL) in each case. Moreover, the MIC in the test with Bacillus subtilis and in the test on Staphylococcus aureus was 128 µM (≈ 91.6 µg/mL) in each case.

As for `CCCCCCCCCC(=O)NCCCC[C@H](NC(=O)CCCCCCCCC)C(=O)N[C@@H](CCCCN)C(=O)N[C@@H](CCCCN)C(=O)N[C@@H](Cc1c[nH]c2ccccc12)C(=O)N[C@@H](Cc1c[nH]c2ccccc12)C(N)=O` (Decanoyl-K(Decanoyl)KKWW-NH2), the MIC (in general, the lowest concentration that inhibits growth of the organism) worked out at 16 µM (≈ 17.3 µg/mL) in the test on Acinetobacter baumannii; 128 µM (≈ 139 µg/mL) in the test on Klebsiella pneumoniae; 16 µM (≈ 17.3 µg/mL) in the test with Escherichia coli; 16 µM (≈ 17.3 µg/mL) with Pseudomonas aeruginosa; 16 µM (≈ 17.3 µg/mL) in the test with Enterococcus faecalis; 8 µM (≈ 8.66 µg/mL) in test [1]. Besides, the figures for the MIC in the test with Bacillus subtilis and in the test on Staphylococcus aureus were 8 µM (≈ 8.66 µg/mL) and 16 µM (≈ 17.3 µg/mL), respectively.

Turning to `CCCCCCCCCC(=O)N[C@@H](CCCCN)C(=O)N[C@@H](CCCCN)C(=O)N[C@@H](Cc1c[nH]c2ccccc12)C(=O)N[C@@H](Cc1c[nH]c2ccccc12)C(N)=O` (Decanoyl-KKWW-NH2), the MIC with Acinetobacter baumannii came out at 32 µM (≈ 25.6 µg/mL); in the test on Klebsiella pneumoniae it was 32 µM (≈ 25.6 µg/mL); in the test on Escherichia coli, 16 µM (≈ 12.8 µg/mL); in the test on Pseudomonas aeruginosa, 8 µM (≈ 6.4 µg/mL); in the test on Enterococcus faecalis, 32 µM (≈ 25.6 µg/mL); in test [1], 16 µM (≈ 12.8 µg/mL). The values for the MIC in the test on Bacillus subtilis and with Staphylococcus aureus were 4 µM (≈ 3.2 µg/mL) and 16 µM (≈ 12.8 µg/mL), respectively.

In the case of `CCCCCC(=O)NCCCC[C@H](NC(=O)CCCCC)C(=O)N[C@@H](CCCCN)C(=O)N[C@@H](CCCCN)C(=O)N[C@@H](Cc1c[nH]c2ccccc12)C(=O)N[C@@H](Cc1c[nH]c2ccccc12)C(N)=O` (Hexanoyl-K(Hexanoyl)KKWW-NH2), the MIC in the test on Acinetobacter baumannii was 128 µM (≈ 124 µg/mL); with Klebsiella pneumoniae, 128 µM (≈ 124 µg/mL); in the test on Escherichia coli, 128 µM (≈ 124 µg/mL); with Pseudomonas aeruginosa it was 64 µM (≈ 62.1 µg/mL); with Enterococcus faecalis, 128 µM (≈ 124 µg/mL); in test [1], 128 µM (≈ 124 µg/mL). Further, the MIC amounted to 64 µM (≈ 62.1 µg/mL) in the test with Bacillus subtilis and 128 µM (≈ 124 µg/mL) in the test with Staphylococcus aureus.

Consider `CCCCCC(=O)N[C@@H](CCCCN)C(=O)N[C@@H](CCCCN)C(=O)N[C@@H](Cc1c[nH]c2ccccc12)C(=O)N[C@@H](Cc1c[nH]c2ccccc12)C(N)=O` (Hexanoyl-KKWW-NH2), for which the MIC (with Acinetobacter baumannii; in the test on Klebsiella pneumoniae; with Escherichia coli; in the test on Pseudomonas aeruginosa; with Enterococcus faecalis; in test [1]) was 128 µM (≈ 95.2 µg/mL) throughout. Besides, the MIC with Bacillus subtilis and in the test with Staphylococcus aureus was 128 µM (≈ 95.2 µg/mL) in each case.

(Values after ChEMBL document CHEMBL6114980, “Single or double lipid-modified ultra-short antimicrobial peptides for treating infections caused by resistant bacteria” (Eur J Med Chem, 2025).)
